According to patent US11597920B2, “Compositions and methods for enhancing reverse transcriptase activity and/or reducing the inhibition of reverse transcriptase” (BIO-RAD LABORATORIES, INC., priority 2019, dated 2023):

Legend:
Assay type in all cases: biochemical
[1] = system: thermo-stable RT (e.g., MMLV or engineered MMLV); assay: RT-qPCR: RT tolerance to heparin (Cq delay of RT products); conditions: for Heparin tolerance: FIG. 2
Protocol: (§1) An RT reaction buffer was formulated so that the RT reaction can be carried out after being mixed together with thermo-stable RT (e.g., MMLV or engineered MMLV) and RNA templates (e.g., Hela RNA). […] The RT reaction was completed in a T100 Thermo Cycler (Bio-Rad Laboratories Inc. Hercules, Calif.). The RT reaction protocol was as follows: 50° C. 20 min, 95° C. 1 min, and incubation at 4° C.
(§2) After RT reaction, the RT products were used for qPCR reaction using SsoAdvanced Universal SYBR Green Supermix (Bio-Rad Laboratories Inc. Hercules, Calif.). The RT product inputs in qPCR reaction ranged from 10% to 0.1% of qPCR reaction, depending on the expression abundance of target genes. Target gene primers (Table 3) at 250 nM were used. The following protocol of qPCR was used on CFC348 Thermo Cycler (Bio-Rad Laboratories Inc. Hercules, Calif.): 95° C. denaturation for 2 min, 40 cycles of 95° C. 5S denaturation, 60° C. 30S annealing/extension/read.

[2] = system: thermo-stable RT (e.g., MMLV or engineered MMLV); assay: RT-qPCR: RT tolerance to other inhibitors (ethanol, guanidine hydrochloride); conditions: 7.5% Ethanol and 50 mM Guanidinum hydrochloride
Protocol: as §1, §2

[3] = system: thermo-stable RT (e.g., MMLV or engineered MMLV); assay: RT-qPCR: RT tolerance to formalin; conditions: for qPCR results from the RT products compared with the RT products without formalin: Human GAPDH
Protocol: (§3) An RT reaction buffer was formulated so that the RT reaction can be carried out after being mixed together with thermo-stable RT (e.g., MMLV or engineered MMLV) and RNA templates (e.g., Hela RNA). In a 20 μl RT reaction mix there is 1 u of RT enzyme, 10 u of Rnasin (Rnase inhibitor), nucleotides each at 1.5 mM (e.g., dATP, dCTP, dGTP, dTTP), random hexamer, oligo dT, or gene-specific oligo nucleotides at appropriate concentration (0.5 to 1 uM), 4% glycerol, 0.01% detergent (e.g., Tween 20), with or without RT inhibitors (e.g., Heparin, Ethanol, Guanidine Hydrochloride, Formalin, Tannic acid, etc.) or additives that improve RT reaction efficiency or sensitivity (e.g., PVSA). The RT reaction was completed in a T100 Thermo Cycler (Bio-Rad Laboratories Inc. Hercules, Calif.). The RT reaction protocol was as follows: 50° C. 20 min, 95° C. 1 min, and incubation at 4° C.
as §2, with “annealing/extension/read. After qPCR reaction, Cq values from RT products with and without inhibitors were compared, and usually Cq values were delayed (bigger values) when inhibitors were present. The larger the Cq value relative to no inhibitor RT products, the more inhibition of RT reaction observed.” for “annealing/extension/read.”
(§4) Human GAPDH target gene was detected in the qPCR reaction.

[4] = system: thermo-stable RT (e.g., MMLV or engineered MMLV); assay: RT-qPCR: RT tolerance to tannic acid
Protocol: as §3
After RT reaction, the RT products were used for qPCR reaction using SsoAdvanced Universal SYBR Green Supermix (Bio-Rad Laboratories Inc. Hercules, Calif.). The RT product inputs in qPCR reaction ranged from 10% to 0.1% of qPCR reaction, depending on the expression abundance of target genes. Target gene primers (Table 3) at 250 nM were used. […] 30S annealing/extension/read. […]
as §4

## N.N.O=S(=O)(O)O [(NH4)2SO4]
[1]
  Heparin tolerance: also improves Heparin tolerance though not as effect as K-Glu
[2]
  tolerance to other inhibitors: compromises Ethanol and GC tolerance

## N[C@@H](CCC(=O)[O-])C(=O)[O-].[K+].[K+] [K-Glu, Potassium Glutamate]
[1]
  Heparin tolerance: improves Heparin tolerance
[1]; Heparin 0.003 U/μl with 100 mM K-Glu present
  Cq delay: less than 1
[1]; Heparin 0.0034 u/μl plus 100 mM potassium Glutamate in RT reaction
  qPCR from the RT products compared with the RT products without heparin: did not show much delay
[2]
  tolerance to other inhibitors: without compromising tolerance

## N[C@@H](Cc1c[nH]cn1)C(=O)O [histidine]
[3]; reaction mixtures containing formalin
  efficiency of the amplification reaction as compared to a control lacking histidine: improved the efficiency

## Cl.N[C@@H](Cc1c[nH]cn1)C(=O)O.O [His-HCl, histidine hydrochloride monohydrate]
[3]; Formalin 0.125% plus 15 to 20 mM His-HCl
  qPCR results from the RT products compared with the RT products without formalin: did not show a lot delay
[3]; formalin with 15 to 20 mM His-HCl present
  Cq delay: less than 1

## Heparin
[1]; Heparin 0.003 U/μl in the RT reaction, no K-Glu
  Cq delay: over 7
[1]; Heparin 0.0034 u/μl in RT reaction, GAPDH and 18S
  qPCR from the RT products compared with the RT products without heparin: greatly delayed

## O=C(OC[C@H]1O[C@@H](OC(=O)c2cc(O)c(O)c(OC(=O)c3cc(O)c(O)c(O)c3)c2)[C@H](OC(=O)c2cc(O)c(O)c(OC(=O)c3cc(O)c(O)c(O)c3)c2)[C@@H](OC(=O)c2cc(O)c(O)c(OC(=O)c3cc(O)c(O)c(O)c3)c2)[C@@H]1OC(=O)c1cc(O)c(O)c(OC(=O)c2cc(O)c(O)c(O)c2)c1)c1cc(O)c(O)c(OC(=O)c2cc(O)c(O)c(O)c2)c1 [Tannic acid]
[4]; Tannic acid 0.1 μg/μl in the RT reaction, no Poloxamer
  Cq delay: over 13
[4]; tannic acid 0.1 μg/μl, Human GAPDH
  qPCR results from the RT products compared with the RT products without tannic acid: greatly delayed

## C=O [Formalin]
[3]; Formalin 0.125% in RT reaction
  qPCR results from the RT products compared with the RT products without formalin: significantly delayed
[3]; formalin in RT reaction, without His-HCl
  Cq delay: about 4
